From patent publication US7994123B2, “Hybrid proteins with ErbB4 extracellular domain and neuregulin heparin-binding domain for targeting” (Wayne State University, priority 2004, dated 2011)

What was measured:
[1] = tested on: erbB receptor phosphorylation (p185) in MCF10CA1 cells; experiment: p185 receptor phosphorylation western blot, MCF10CA1; format: cell-based, human; settings: for exogenous NRG-induced p185 erbB receptor phosphorylation: AG1478 or 100 μg/ml Trastuzumab (24 h pre-treatment)
Method: Western blots and L6 muscle assays: P185 receptor phosphorylation of the three cell lines was measured by phosphotyrosine western blots after NRG treatment for 30 min on 3 day old cultures as described in WO 03/012045 and Li Q & Loeb J A (2001) J Biol Chem; 276:38068-75. […] The media was discarded and phosphotyrosine western blots were performed as above. The membranes were stripped and reprobed with polyclonal rabbit erbB2 for the detection of overall erbB2 protein that was used for quantitation.
(§1) After 2 days, the Optimem I conditioned media was concentrated by Centricon at 4° C. 40 μl of IgB4 conditioned media or 10 μM of tyrosine kinase inhibitor AG1478 were combined with […] 1 nM NRG in MCF10A/AT media for 15 min at room temperature before being added to MCF10CA1 cells for 30 min treatment. […] The amount of each antagonist was determined empirically based on its ability to block NRG-induced activation of L6 cells.

[2] = tested on: MCF10CA1 human breast cancer cells; experiment: Cell proliferation assay, MCF10CA1; format: cell-based; settings: IgB4 conditioned media, 10 μM AG1478 or 100 μg/ml Trastuzumab; for MCF10CA1 proliferation with exogenous NRG: 1 nM NRG
Method: Cell proliferation assays: All three breast epithelial cell lines were plated at 5000 cells/well in 48 well plates in regular MCF10A/AT or MCF10CA1 media. After incubation for 3 days, 1 nM NRG in MCF10A/AT media or just MCF10A/AT media alone were applied to the cells for another 24 hours followed by washing them with culture media and then counting cell numbers using an hemocytometer on the 4th, 5th, 6th, 7th and 8th day.
as §1

[3] = tested on: erbB phosphorylation (p185) in L6 muscle cells; experiment: NRG1-induced erbB phosphorylation after reducing endogenous HSPG sulfation; format: cell-based; settings: chlorate 48 hours
Method: Cell Cultures and Western Blots for p185 phosphorylation—L6 Cells were used to quantify erbB receptor phosphotyrosine (p185) as described (WO 03/012045; Li & Loeb, supra). Cells were plated at 50,000 cells/well and grown for 8 days. Chlorate was filter sterilized and incubated with L6 cells for 2 days prior to the assay. Inhibition assays of p185 were performed by pre-incubating 75 pM of IgEGF NRG1 and various concentrations of the heparins at room temp for 20 minutes. 150 μL of this mixture was then applied to 8 day-old L6 cells for 45 minutes at 37° C. in […]. The medium was aspirated, and the cells were solubilized in 50 μL sample buffer and boiled for 5 minutes as described previously (WO 03/012045; Li & Loeb, supra) 15 μL of this was resolved on a 5% denaturing polyacrylamide gel. Phosphorylated forms of the erbB receptors (p185) were detected by western blot analysis using the phosphotyrosine monoclonal antibody 4G10 (Upstate) and then verified and quantified by reprobing with a mixture of antibodies against erbB2 (Neomarkers Ab-17) and erbB3 (Neomarkers Ab-6). Quantitation was performed by determining the ratio of p185/(erbB2+erbB3) using Metamorph Imaging System (Universal Imaging Corp) on non-saturated images as described (Esper, R M & Loeb, J A (2004) J Neurosci 24:6218-27) […]

NRG1 = target: T1, NRG1 (Homo sapiens, UniProt Q02297); experiment: Gel mobility shift assay (GMSA); format: binding; settings: 35 ng NRG1, 20 minutes; heparins at 0, 1, 10, 100 μg/ml
T1 construct: the intact IgEGF form of NRG1 corresponds to amino acids 14-246; purchased R&D (Minneapolis Minn.)
T1 sequence (Q02297 14-246 isoform Q02297-6): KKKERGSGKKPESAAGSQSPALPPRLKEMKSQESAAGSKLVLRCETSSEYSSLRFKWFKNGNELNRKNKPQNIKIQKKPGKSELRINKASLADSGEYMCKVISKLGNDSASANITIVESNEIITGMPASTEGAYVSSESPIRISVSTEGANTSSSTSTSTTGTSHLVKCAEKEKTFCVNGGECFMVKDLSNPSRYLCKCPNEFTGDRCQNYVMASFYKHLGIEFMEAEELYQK
Method: Gel Mobility Shift Assay (GMSA)—NRG1 alone, or NRG1 plus various heparins at various concentrations were incubated with binding buffer (2.7 mM KCl, 4.3 mM Na2HPO4, 10 mM MgCl2, 1.4 mM KH2PO4, 12% glycerol, 1 mM DTT.) for 20 minutes and run on a 6% (29:1 acrylamide:bis) non-denaturing gel (10 mM Tris (pH 7.4), 1 mM EDTA) for 20 minutes at 200 V as described (Wu, Z L et al. (2002) FASEB J 16, 539-45; Wu, Z L et al. (2003) J Biol Chem 278:17121-29). […] However, band resolution was sharper at pH 8.0 and was therefore used for our studies here. Protein was transferred to a polyvinylidene fluoride membrane (Millipore corp.) for 1 hr at 100V. NRG1 bands were detected by western blot analysis using a polyclonal rabbit antiserum (AD03) developed against the IgEGF polypeptide (Assay Designs Inc.). The filters were then probed with a goat anti-rabbit antibody coupled to peroxidase (Chemicon), exposed to X-blue film (Eastman Kodak Co.) after treatment with chemiluminescence reagents, and bands were quantified as above.

[4] = tested on: NRG1-induced erbB receptor phosphorylation (p185) in L6 cells; experiment: Inhibition of NRG1-induced p185 by heparins in L6 cells; format: cell-based; settings: for inhibition of NRG1-induced erbB receptor phosphorylation (p185): 75 pM IgEGF NRG1 pre-incubated with heparin 20 minutes, L6 cells 45 minutes
Method: Cell Cultures and Western Blots for p185 phosphorylation—L6 Cells were used to quantify erbB receptor phosphotyrosine (p185) as described (WO 03/012045; Li & Loeb, supra). Cells were plated at 50,000 cells/well and grown for 8 days. Chlorate was filter sterilized and incubated with L6 cells for 2 days prior to the assay. Inhibition assays of p185 were performed by pre-incubating 75 pM of IgEGF NRG1 and various concentrations of the heparins at room temp for 20 minutes. 150 μL of this mixture was then applied to 8 day-old L6 cells for 45 minutes at 37° C. in […]. The medium was aspirated, and the cells were solubilized in 50 μL sample buffer and boiled for 5 minutes as described previously (WO 03/012045; Li & Loeb, supra) 15 μL of this was resolved on a 5% denaturing polyacrylamide gel. Phosphorylated forms of the erbB receptors (p185) were detected by western blot analysis using the phosphotyrosine monoclonal antibody 4G10 (Upstate) and then verified and quantified by reprobing with a mixture of antibodies against erbB2 (Neomarkers Ab-17) and erbB3 (Neomarkers Ab-6). Quantitation was performed by determining the ratio of p185/(erbB2+erbB3) using Metamorph Imaging System (Universal Imaging Corp) on non-saturated images as described (Esper, R M & Loeb, J A (2004) J Neurosci 24:6218-27)

[5] = 1 nM NRG, 30 min, IgB4 conditioned media

COc1cc2ncnc(Nc3cccc(Cl)c3)c2cc1OC [AG1478, reference compound]
EGF receptor phosphorylation (lower band) ([1]; 1 nM NRG, 30 min): reducing both p185 (erbB2/3, upper band) and EGF receptor phosphorylation (lower band) in a dose dependent manner
exogenous NRG-induced p185 erbB receptor phosphorylation [1, 5]: blocked NRG-induced erbB signaling
MCF10CA1 proliferation with exogenous NRG [2]: reduced the growth rate
MCF10CA1 growth rate without exogenous NRG [2]: reduced the growth rate

[O-][Cl+2]([O-])O [chlorate, Sodium chlorate]
reduction of receptor phosphorylation, EGF form ([3]; EGF form lacking the heparin-binding domain): no reduction
reduction of receptor phosphorylation, IgEGF NRG1 ([3]; full-length heparin-binding NRG1 (IgEGF)): 53%

De-2O sulfated heparin
shift of NRG1 mobility (NRG1 binding) (NRG1): shifted NRG1 better than De-N sulfated heparin but less than fully sulfated heparin
inhibition of NRG1-induced erbB receptor phosphorylation (p185) [4]: intermediate effects

De-6O sulfated heparin
shift of NRG1 mobility (NRG1 binding) (NRG1): shifted NRG1 better than De-N sulfated heparin but less than fully sulfated heparin
inhibition of NRG1-induced erbB receptor phosphorylation (p185) [4]: intermediate effects

De-N sulfated heparin
shift of NRG1 mobility (NRG1 binding) (NRG1): did not shift NRG1
inhibition of NRG1-induced erbB receptor phosphorylation (p185) [4]: little inhibition even at 100 μg/ml
effect on receptor phosphorylation at low concentration ([4]; 1 μg/ml): modest stimulatory effect

heparin
shift of NRG1 mobility (NRG1 binding) (NRG1): shift NRG1 in a dose-dependent manner
inhibition of NRG1-induced erbB receptor phosphorylation (p185) [4]: inhibited by fully-sulfated heparin in a dose-dependent manner

B1: IgB4: soluble NRG antagonist: ECD of erbB4 receptor fused to Fc portion of human IgG1 (protein)
chain: QSVCAGTENKLSSLSDLEQQYRALRKYYENCEVVMGNLEITSIEHNRDLSFLRSVREVTGYVLVALNQFRYLPLENLRIIRGTKLYEDRYALAIFLNYRKDGNFGLQELGLKNLTEILNGGVYVDQNKFLCYADTIHWQDIVRNPWPSNLTLVSTNGSSGCGRCHKSCTGRCWGPTENHCQTLTRTVCAEQCDGRCYGPYVSDCCHRECAGGCSGPKDTDCFACMNFNDSGACVTQCPQTFVYNPTTFQLEHNFNAKYTYGAFCVKKCPHNFVVDSSSCVRACPSSKMEVEENGIKMCKPCTDICPKACDGIGTGSLMSAQTVDSSNIDKFINCTKINGNLIFLVTGIHGDPYNAIEAIDPEKLNVFRTVREITGFLNIQSWPPNMTDFSVFSNLVTIGGRVLYSGLSLLILKQQGITSLQFQSLKEISAGNIYITDNSNLCYYHTINWTTLFSTINQRIVIRDNRKAENCTAEGMVCNHLCSSDGCWGPGPDQCLSCRRFSRGRICIESCNLYDGEFREFENGSICVECDPQCEKMEDGLLTCHGPGPDNCTKCSHFKDGPNCVEKCPDGLQGANSFIFKYADPDRECHPCHPNCTQGCNGPTSHDCIYYPWTGHSTLPQHARTP
modifications: left off: a dimerising Fc or GST
notes: soluble NRG antagonist: ECD of erbB4 receptor fused to Fc portion of human IgG1
exogenous NRG-induced p185 erbB receptor phosphorylation [1, 5]: effectively blocked
basal p185 erbB receptor phosphorylation ([1]; no exogenous NRG, IgB4 conditioned media, 10 μM AG1478 or 100 μg/ml Trastuzumab (24 h pre-treatment)): effectively blocked
MCF10CA1 proliferation with exogenous NRG [2]: blocked MCF10CAL cell proliferation induced by exogenous NRG treatment
MCF10CA1 growth rate without exogenous NRG [2]: significantly reduced the baseline growth rate
